Data as given in patent publication US8163777B2, “Benzimidazolyl-pyridine compounds for inflammation and immune-related uses” (Synta Pharmaceuticals Corp., priority 2006, dated 2012).

Columns and labels:
[1] = tested on: IL-2, IL-4, IL-5, IL-13, GM-CSF, INF-γ and TNF-α; experiment: Inhibition of multiple cytokines in primary human PBMCs (summary statement); assay type: cell-based; conditions: PHA-stimulated PBMCs
Method: Cytokine production was measured using commercially available human ELISA assay kits (from Cell Science, Inc.) following the manufacturers instructions.

IL-2 production = experiment: Inhibition of IL-2 production in PHA-activated Jurkat cells (ELISA); assay type: cell-based; conditions: Homo sapiens, PHA 2.5 μg/mL, 20 hours
Method: Jurkat cells were placed in a 96 well plate (0.5 million cells per well in 1% FBS medium) then test compounds of this invention were added at different concentrations. After 10 minutes, the cells were activated with PHA (final concentration 2.5 μg/mL) and incubated for 20 hours at 37° C. under CO2. The final volume was 200 μL. Following incubation, the cells were centrifuged and the supernatants collected and stored at −70° C. prior to assaying for IL-2 production. A commercial ELISA kit (IL-2 Eli-pair, Diaclone Research, Besancon, France) was used to detect production of IL-2, from which dose response curves were obtained. The IC50 value was calculated as the concentration at which 50% of maximum IL-2 production after stimulation was inhibited versus a non-stimulation control.

Compound | inhibition of IL-2, IL-4, IL-5, IL-13, GM-CSF, INF-γ and TNF-α (in words) [1] | IC50 (IL-2 production; binned values) | other results
CC(C)(C)OC(=O)Nc1ccc(C(=O)Nc2ccc(-n3c(C(F)(F)F)nc4ccccc43)cc2)c(F)c1F [Compound 31, N-(4-{N-[4-(2-trifluoromethyl-benzoimidazol-1-yl)-phenyl]-carbamoyl}-2,3-difluoro-phenyl)-carbamic acid t-butyl ester] | potent inhibitors |  | 
COc1ccc2c(c1)nc(C(F)(F)F)n2-c1ccc(NC(=O)c2ccc3c(c2)OCO3)cc1 [Compound 75, Benzo[1,3]dioxole-5-carboxylic acid {N-[4-(2-trifluoromethyl-5-methoxy-benzoimidazol-1-yl)-phenyl]} amide] | potent inhibitors |  | 
CCCCc1ccc(C(=O)Nc2ccc(-n3c(C(F)(F)F)nc4cc(OC)ccc43)cc2)cc1 [Compound 66, 4-Butyl-N-[4-(2-trifluoromethyl-5-methoxy-benzoimidazol-1-yl)-phenyl]-benzamide] | potent inhibitors |  | 
COc1ccc2c(c1)nc(C(F)(F)F)n2-c1ccc(NC(=O)C2CCCC2)nc1 [Compound 193, Cyclopentanecarboxylic acid [5-(5-methoxy-2-trifluoromethyl-benzoimidazol-1-yl)-pyridin-2-yl]-amide] |  | < 100 nM | 
COc1ccc2c(c1)nc(C(F)(F)F)n2-c1ccc(NC(=O)c2ccccc2F)nc1 [Compound 185, 2-Fluoro-N-[5-(5-methoxy-2-trifluoromethyl-benzoimidazol-1-yl)-pyridin-2-yl]-benzamide] |  | < 100 nM | 
COc1ccc2c(c1)nc(C(F)(F)F)n2-c1ccc(NC(=O)c2ccccc2Br)nc1 [Compound 180, 2-Bromo-N-[5-(5-methoxy-2-trifluoromethyl-benzoimidazol-1-yl)-pyridin-2-yl]-benzamide] |  | < 100 nM | 
COc1ccc2c(c1)nc(C(F)(F)F)n2-c1ccc(NC(=O)c2cc([N+](=O)[O-])cc([N+](=O)[O-])c2)cc1 [Compound 81, 3,5-Dinitro-N-[4-(2-trifluoromethyl-5-methoxy-benzoimidazol-1-yl)-phenyl]-benzamide] |  | 100 to 500 nM | 
CCNc1ccc(-n2c(C(F)(F)F)nc3cc(OC)ccc32)nc1 [Compound 162, Ethyl-[6-(5-methoxy-2-trifluoromethyl-benzoimidazol-1-yl)-pyridin-3-yl]-amine] |  | > 1000 nM | 
COc1ccc2c(c1)nc(C(F)(F)F)n2-c1ccc(NC(=O)c2ccc(I)cc2)nc1 [Compound 182, 4-Iodo-N-[5-(5-methoxy-2-trifluoromethyl-benzoimidazol-1-yl)-pyridin-2-yl]-benzamide] |  |  | IC50 (IL-2 production; bin given with mixed units 500 nM-1 μM): 500 to 1000 nM
